IC50 data for 1 compound are collected here from BindingDB's records for doi:10.7270/Q2PZ577D (The Scripps Research Institute Molecular Screening Center, 2008).

The target of the test is T1, Signal transducer and activator of transcription 3 [702-738,740-752] (Homo sapiens, UniProt P40763).
T1 construct: 702-738,740-752
The experiment in a line: dose response, counter-screen for STAT1 inhibitor project (AID 1409).

Each structure is given as a SMILES string. pIC50: −log10 of the molar value.

T1 sequence (P40763 as listed by the source): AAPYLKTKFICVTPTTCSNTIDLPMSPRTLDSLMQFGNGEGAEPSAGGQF

With `CCN1C(=O)C(=CNNC(=O)c2ccncc2)C(=O)N(CC)C1=S` [SMR000218837], the pIC50 (usually the negative decadic logarithm of the IC50, by convention in mol/L) was less than 4.25.
